One series concerns EpiDerm tissues. In words: MatTek EpiDerm in vitro human skin model, croton oil irritant, multiplex immunoassay of markers. It counts as cell-based. The settings on record: for tissue levels of IL-17 / tissue levels of MIP-1-alpha: relative to control (croton oil only).
Series [1] has as its system human cutaneous malignant melanoma. The conditions noted are these: Zaffaroni et al. 1990; cited from earlier work.
Another series concerns human choroidal melanoma. The conditions noted are these: Breathnach et al. 1989; cited from earlier work.
Series [2] deals with human squamous cell carcinoma. The settings on record: Paetzold et al. 1989; cited from earlier work.
For series [3], the system named is various fibroblastic lines. The conditions noted are these: Geier et al. 1986; cited from earlier work.
For series [4] the following is noted: clinical practice; cited from earlier work.
[5] abbreviates: growth medium, croton oil, 24 hours, relative to control.
[6] abbreviates: tissue, croton oil, 24 hours, relative to control.

On to `CCOC(=O)CCCCCCCC(=O)OCC` [DEA, diethyl azelate], for which, in the series with EpiDerm tissues (matrix not stated), the IL-8 modulation result was “suppressing”, the IL-17 modulation result is listed as “suppressing” and the IL-23 modulation result is listed as “suppressing”. For the same compound, in the series on EpiDerm tissues (tissue), the “tissue levels of IL-17” value was “exceedingly high relative to control” and the “tissue levels of MIP-1-alpha” value was “elevated relative to control”.
As to `COC(=O)CCCCCCCC(=O)OC` [DMA, dimethylazelate], in the series on EpiDerm tissues (setting [5]), the “IL-1-beta medium marker level” value is reported as “increased”, the “IL-4 medium marker level” value is listed as “increases”, the “IL-10 medium marker level” value is on record as “increases” and the “TNF-alpha medium marker level” value was “increased”. In addition, in the series with EpiDerm tissues (setting [6]), the IL-1-beta tissue level entry is listed as “decreased relative to control”, the IL-4 tissue level entry was “decreased relative to control”, the IL-10 tissue level entry is given as “decreased relative to control” and the TNF-alpha tissue level entry is recorded as “decreased relative to control”.
As for `O=C(O)CCCCCCCC(=O)O` [azelaic acid], the “tissue levels of IL-17” value in the series on EpiDerm tissues (tissue) was “significantly lower than control”. For the same compound, the “tissue levels of MIP-1-alpha” value in the series with EpiDerm tissues (tissue) is reported as “elevated relative to control”. Also, the “antiproliferative and cytotoxic action” value was “antiproliferative and cytotoxic action” in series [1]; “antiproliferative and cytotoxic action” with human choroidal melanoma; “antiproliferative and cytotoxic action” in series [2]; “antiproliferative and cytotoxic action” in series [3]. For the same compound, the “major dose limiting toxicity” value in series [4] is “skin irritation”.

The values are drawn from patent US20120251525A1, “METHOD OF UTILIZING AZELAIC ACID ESTERS TO MODULATE COMM[…] BY […]” (priority 2009, published 2012).
